Experimental data as given in US8883140B2 (Henkel AG & Co. KGaA, priority 2010, dated 2014).

System: variant F49 of the protease from Bacillus lentus
Test: Residual proteolytic activity after storage in liquid washing agent (suc-AAPF-pNA release)
Type: biochemical
Conditions: 13 days at 30° C., based on initial activity of 100%
Description: A liquid washing agent of the following composition served as a baseline washing agent formulation (all indications in percent by weight): 0.3 to 0.5% xanthan, 0.2 to 0.4% antifoaming agent, 6 to 7% glycerol, 0.3 to 0.5% ethanol, 4 to 7% FAEOS (fatty alcohol ether sulfate), 24 to 28% nonionic surfactants, 1 to 2% sodium citrate (dihydrate), 2 to 4% soda, 14 to 16% coconut fatty acids, 0.5% HEDP (1-hydroxyethane-(1,1-diphosphonic acid)), 0 to 0.4% PVP (polyvinylpyrrolidone), 0 to 0.05% optical brightener, 0 to 0.001% dye, remainder demineralized water.
The oligoaminobiphenyl oligocarboxylic acid 3,3-diamino-[1,1-biphenyl]-2,4-dicarboxylic acid was incorporated into this formulation as the component stabilizing the hydrolytic enzyme, as indicated below (see Table 1, indications in this regard in wt %). Comparison formulations that contained either boric acid as an enzyme stabilizer, or no enzyme stabilizer, served as controls. The protease used was variant F49 of the protease from Bacillus lentus in accordance with WO 95/23221 (quantity used: 1 wt % active substance).
After storage, the respective residual proteolytic activity was determined by way of the release of the para-nitroaniline (pNA) chromophore from the suc-L-Ala-L-Ala-L-Pro-L-Phe-p-nitroanilide substrate (suc-AAPF-pNA) (SEQ ID NO. 1). The protease cleaves the substrate and releases pNA. The release of pNA causes an increase in extinction at 410 nm, the time course of which is an indication of enzymatic activity (see Del Mar et al., 1979). Measurement occurred at a temperature of 25° C., at pH 8.6 and at a wavelength of 410 nm. The measurement time was 5 min, with a measurement interval from 20 s to 60 s. The proteolytic activity values obtained are indicated in Table 1 below, based on an initial activity of 100% when storage began.

[1] = 1.0 wt % (1%) stabilizer in baseline liquid washing agent

SMILES | residual proteolytic activity after storage [1] [%] | residual proteolytic activity after storage (0.1 wt % stabilizer in baseline liquid washing agent) [%] | residual proteolytic activity after storage (0.5 wt % stabilizer in baseline liquid washing agent) [%] | residual proteolytic activity after storage (2.0 wt % stabilizer in baseline liquid washing agent) [%]
OB(O)O [boric acid, reference compound] | 74.9 | – | – | –
Nc1cc(-c2cccc(N)c2C(=O)O)ccc1C(=O)O | 48.0 | 30.2 | 43.5 | 73.6
